Experimental findings from ChEMBL document CHEMBL1140081 (J Med Chem, 2008) are described below.

Molecules are shown by their SMILES.

Data set [1] in a line: Metabolic stability in rhesus monkey liver microsomes. Type of data set: ADME, Macaca mulatta, Microsome. For orientation: Microsomes from liver hold many membrane-bound enzymes, among them those of drug oxidation.
Data set [2] has as its system Liver microsomes. The experiment in a line: Metabolic stability in Sprague-Dawley rat liver microsomes. The class given is ADME, Microsome.
For data set [3], the system named is Liver microsomes. The experiment in a line: Metabolic stability in human liver microsomes. The class given is ADME, Microsome.
A short description of data set [4]: Metabolic stability in dog liver microsomes. Type of data set: ADME, Canis lupus familiaris, Microsome.
The nature of data set [5]: Metabolic stability in iv dosed Sprague-Dawley rat bile assessed as raltegravir-glucuronide recovery. The class given is ADME, organism-based. To be noted: in vivo.
Data set [6] can be described thus: Metabolic stability in iv dosed Sprague-Dawley rat urine assessed as raltegravir-glucuronide recovery. Type of data set: ADME, organism-based. To be noted: in vivo.
Data set [7] can be described thus: Metabolic stability in iv dosed Sprague-Dawley rat urine assessed as drug recovery. Type of data set: ADME, organism-based. To be noted: read-out: Drug uptake.
A short description of data set [8]: Metabolic stability in iv dosed Sprague-Dawley rat bile assessed as drug recovery. Type of data set: ADME, organism-based. The following applies: read-out: Drug uptake.
Data set [9] in a line: Metabolic stability in iv dosed dog urine assessed as drug recovery after 0 to 24 hrs. Type of data set: ADME, organism-based, Canis lupus familiaris. To be noted: read-out: Drug uptake.
The nature of data set [10]: Metabolic stability in iv dosed dog urine assessed as drug recovery. The class given is ADME, organism-based, Canis lupus familiaris. To be noted: read-out: Drug uptake.
Data set [11] in a line: Metabolic stability in iv dosed dog urine assessed as raltegravir-glucuronide recovery. The class given is ADME, organism-based, Canis lupus familiaris. The following applies: in vivo.
Data set [12] is described as follows: Metabolic stability in Sprague-Dawley rat bile. Type of data set: ADME.
Data set [13] in a line: Metabolic stability in po dosed dog bile. To be noted: in vivo. The class given is ADME, organism-based, Canis lupus familiaris.

As for `Cc1nnc(C(=O)NC(C)(C)c2nc(C(=O)NCc3ccc([19F])cc3)c(O)c(=O)n2C)o1`, the Stability was determined as 51.8 mL/day/kg in [1], 49 mL/day/kg in the data set with Liver microsomes [2], 13 mL/day/kg with Liver microsomes [3] and 2.9 mL/day/kg in data set [4]. In addition, the figures for the Drug uptake in [5], in data set [6] and in data set [11] were 90%, 90% and 35%, respectively. Besides, the dose excreted came to 10% in [7], 10% in data set [8], 30% in data set [9] and 65% in data set [10].

`CN(C)C(=O)C(=O)NC(C)(C)c1nc(C(=O)NCc2ccc([19F])cc2)c(O)c(=O)n1C`: the Stability in data set [1] was 66.2 mL/day/kg; in the data set on Liver microsomes [2], 28.8 mL/day/kg; in the data set on Liver microsomes [3] it was 12 mL/day/kg; in data set [4] it was 4.3 mL/day/kg. Besides, the Activity turned out to be 5% in data set [12] and 13% in data set [13].
